{"source": "paper PMC6449605", "about": "“Pyrophosphate Stimulates the Phosphate-Sodium Symporter of Trypanosoma brucei Acidocalcisomes and Saccharomyces cerevisiae Vacuoles” (mSphere, 2019)", "key": {"TbPho91": {"target": "T1, TbPho91 (Trypanosoma brucei, UniProt Q383G2)", "T1 construct": "full length, cRNA expressed in Xenopus laevis oocytes (also in giant vacuoles of pho91-delta yeast)", "T1 sequence (Q383G2 1-728)": "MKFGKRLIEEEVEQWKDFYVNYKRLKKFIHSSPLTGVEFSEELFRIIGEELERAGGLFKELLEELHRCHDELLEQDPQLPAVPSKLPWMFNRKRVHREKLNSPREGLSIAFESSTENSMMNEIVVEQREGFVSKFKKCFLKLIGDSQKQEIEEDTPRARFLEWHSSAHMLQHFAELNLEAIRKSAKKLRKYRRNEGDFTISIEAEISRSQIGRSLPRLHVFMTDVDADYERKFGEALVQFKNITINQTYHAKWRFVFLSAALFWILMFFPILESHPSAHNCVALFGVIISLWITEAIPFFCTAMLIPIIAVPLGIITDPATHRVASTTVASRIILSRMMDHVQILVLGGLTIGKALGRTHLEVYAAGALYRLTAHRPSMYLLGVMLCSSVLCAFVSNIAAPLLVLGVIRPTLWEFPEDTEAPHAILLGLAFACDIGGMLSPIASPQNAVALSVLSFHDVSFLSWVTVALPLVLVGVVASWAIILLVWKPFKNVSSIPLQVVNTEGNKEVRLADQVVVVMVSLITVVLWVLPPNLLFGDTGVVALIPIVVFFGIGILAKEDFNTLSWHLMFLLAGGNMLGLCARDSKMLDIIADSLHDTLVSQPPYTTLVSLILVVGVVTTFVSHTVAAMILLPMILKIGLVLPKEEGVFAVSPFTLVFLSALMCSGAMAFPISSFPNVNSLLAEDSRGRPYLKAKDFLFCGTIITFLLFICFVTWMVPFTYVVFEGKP", "test": "two-electrode voltage clamp, Xenopus oocytes", "type": "cell-based", "details": "activator, modulates 10 mM Pi-evoked current; ND96 pH 7.5; room temperature"}, "Pho91p": {"target": "T2, Pho91p (Saccharomyces cerevisiae, UniProt P27514)", "T2 construct": "gene PHO91; full length, cRNA expressed in Xenopus laevis oocytes", "T2 sequence (P27514 1-894)": "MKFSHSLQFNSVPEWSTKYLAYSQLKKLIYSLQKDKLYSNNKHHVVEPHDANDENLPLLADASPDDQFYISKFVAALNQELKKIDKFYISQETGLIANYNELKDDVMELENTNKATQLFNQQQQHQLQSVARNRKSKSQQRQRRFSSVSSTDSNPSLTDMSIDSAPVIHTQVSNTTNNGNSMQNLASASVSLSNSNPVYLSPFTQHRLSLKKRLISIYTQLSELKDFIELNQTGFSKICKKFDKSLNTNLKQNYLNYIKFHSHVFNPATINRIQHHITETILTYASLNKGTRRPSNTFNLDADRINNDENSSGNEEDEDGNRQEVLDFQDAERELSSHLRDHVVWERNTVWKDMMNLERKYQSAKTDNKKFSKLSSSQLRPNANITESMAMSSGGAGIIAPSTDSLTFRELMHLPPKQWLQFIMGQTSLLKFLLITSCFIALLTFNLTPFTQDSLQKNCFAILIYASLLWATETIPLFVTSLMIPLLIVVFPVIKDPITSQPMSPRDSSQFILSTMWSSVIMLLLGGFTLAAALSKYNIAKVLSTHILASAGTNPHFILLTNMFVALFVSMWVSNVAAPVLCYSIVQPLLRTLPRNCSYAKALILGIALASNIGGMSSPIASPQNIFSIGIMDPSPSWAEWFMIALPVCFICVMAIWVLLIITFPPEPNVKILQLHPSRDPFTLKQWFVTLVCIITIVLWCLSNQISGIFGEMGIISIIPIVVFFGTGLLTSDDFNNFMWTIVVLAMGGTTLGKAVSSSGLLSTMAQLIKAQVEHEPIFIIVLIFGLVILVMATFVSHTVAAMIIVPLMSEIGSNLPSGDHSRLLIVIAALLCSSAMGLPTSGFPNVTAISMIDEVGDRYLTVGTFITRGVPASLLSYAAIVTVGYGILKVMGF", "test": "two-electrode voltage clamp, Xenopus oocytes", "type": "cell-based", "details": "ND96, room temperature"}}}
{"smiles": "O=P(O)(O)OP(=O)(O)OP(=O)(O)O", "note": "[polyP3]", "values": [{"measurement": "threshold for significant amplification of Na+/Pi current", "setting": "TbPho91", "result": 200, "unit": "µM"}, {"measurement": "inward current amplitude at 10 mM", "setting": "Pho91p; activator, 10 mM Na+/polyP3", "result": "771.6 ± 168.4", "unit": "nA"}]}
{"smiles": "O=P(O)(O)OP(=O)(O)O", "note": "[PPi]", "values": [{"measurement": "inward current amplitude at 10 mM", "setting": "Pho91p; activator, 10 mM Na+/PPi", "result": "447.8 ± 84.1", "unit": "nA"}]}
{"smiles": "O=P(O)(O)O", "note": "[Pi]", "values": [{"measurement": "inward current amplitude at 10 mM", "setting": "Pho91p; 10 mM Na+/Pi, Na+ co-transported", "result": "146.8 ± 41.6", "unit": "nA"}]}
